“And” between values parts separate entries of the source, which are not always exact repeats. Equal values may be shown once. Read-outs that look alike come from different tables or passages of the source.
Legend:
[1] = in vitro; settings: PAMPA
[2] = Mouse liver microsomal stability assay; settings: CD1, mouse, pH 7.4
[3] = female, BALB/c, mouse, 1 h, 2 μM, pH 7.4
[4] = PAMPA
[5] = target: PL^pro (Severe acute respiratory syndrome coronavirus 2, UniProt P0DTD1); settings: 20 μM compound, 5 μM enzyme, average of triplicates with SD
[6] = human, microsomes
[7] = physchem; settings: 25 °C, kinetic from dmso stock
[8] = physchem; settings: pH 7.4
[9] = in vitro; settings: CD1, mouse, microsomes, pH 7.4
[10] = Human liver microsomal stability assay
[11] = in vitro; settings: human, microsomes, pH 7.4
[12] = Plasma stability; settings: for half-life at 2 μM: female, BALB/c, mouse, plasma, pH 7.4
[13] = tested on: SARS-CoV-2; settings: Vero CCL-81 cells, 10 μM
[14] = Parallel artificial membrane permeability assay (PAMPA)
[15] = Chromatographic distribution coefficient (eLogD7.4); settings: pH 7.4
[16] = Kinetic solubility; settings: 25 °C, kinetic from dmso stock
[17] = target: SARS-CoV-2 PL^pro (Severe acute respiratory syndrome coronavirus 2, UniProt P0DTD1); format: biochemical
[18] = human, liver microsomes, pH 7.4

## COc1ccc(CNC(=O)C2CCN([C@H](C)c3ccccc3)CC2)cc1 [Compound 3]
[1]
  Papp at 5 h, 10 μM: 2.35 ×10⁻⁶ cm/s
[2]; liver microsomes
  half-life at 0.5 μM: 29.5 min
[3]
  plasma stability remaining 60 min: 83.80%
[4]
  permeability (in words): highly permeable
[5]
  ΔT m: 0.06 °C and 0.06 ± 0.05 °C
[6]
  metabolic stability (in words): improved stability
[7]; pH 2, aqueous buffer
  solubility kinetic at 24 h: > 22.1 µg/mL
[7]; pH 7.4, aqueous buffer
  solubility kinetic at 24 h: > 22.3 µg/mL
[8]
  chromatographic logD: 3
[9]
  microsomal CLint at 0.5 μM: 94 µL/min/mg
[10]; [18]
  half-life at 0.5 μM: 231 min
[11]
  microsomal CLint at 0.5 μM: 12 µL/min/mg

## COc1ccc(CC(=O)NC2CCN([C@H](C)c3cccc4ccccc34)CC2)cc1 [Compound 6]
[1]
  Papp at 5 h, 10 μM: 1.74 ×10⁻⁶ cm/s
[2]; liver microsomes
  half-life at 0.5 μM: 16.2 min
[3]
  plasma stability remaining 60 min: 90.29%
[4]
  permeability (in words): highly permeable
[5]
  ΔT m: 4.8 °C and 4.8 ± 0.1 °C
[7]; pH 2, aqueous buffer
  solubility kinetic at 24 h: > 24.9 µg/mL
[7]; pH 7.4, aqueous buffer
  solubility kinetic at 24 h: > 12.7 µg/mL
[8]
  chromatographic logD: 4.28
[12]
  half-life at 2 μM: 2310 min
[9]
  microsomal CLint at 0.5 μM: 171 µL/min/mg
[10]; [18]
  half-life at 0.5 μM: 31.4 min
[11]
  microsomal CLint at 0.5 μM: 88.4 µL/min/mg

## COc1ccc(CNC(=O)C2CCN(C(C)c3cccc4ccccc34)CC2)cc1 (centres unmarked) [MMV1634397]
[13]
  decrease of viral replication (viral load by RT-PCR): over 50%
[2]; microsomes
  half-life at 0.5 μM: 21.5 min
  microsomal CLint at 0.5 μM: 129 µL/min/mg
[14]
  Papp at 5 h, 10 μM: 1.07 ×10⁻⁶ cm/s
  permeability (in words): medium to low permeable
[15]
  chromatographic logD: 4.17
[5]
  ΔT m: 6.26 °C and 6.3 ± 0.3 °C
[16]; pH 2, aqueous buffer
  solubility kinetic at 24 h: > 24.6 µg/mL
[16]; pH 7.4, aqueous buffer
  solubility kinetic at 24 h: > 21.6 µg/mL
[12]
  half-life at 2 μM: 433 min
[12]; mouse plasma, 60 min
  plasma stability remaining 60 min: 54.08%
[17]
  inhibition of SARS-CoV-2 PL^pro: ≥ 80%
[10]; human liver microsomes
  HLM CLint(mic): 80.40 µL/min/mg
  HLM T 1/2: 34.48 min
[10]; human, microsomes, pH 7.4, HLM CLint(mic), human liver microsomes
  microsomal CLint at 0.5 μM: 80 µL/min/mg
[10]; human, microsomes, pH 7.4, HLM T 1/2, human liver microsomes
  half-life at 0.5 μM: 35 min
[10]; liver microsomes
  metabolic stability (in words): moderately stable

Source: PMC12461331, “Screening of Medicines for Malaria Venture Open Boxes Identifies Potent SARS-CoV‑2 Papain-like Protease (PL^pro) Inhibitors” (ACS Omega, 2025)
